Experiments:
[1] = Cytotoxicity against human RPMI8226 cells assessed as cell growth inhibition at 10 uM after 48 hrs by SRB assay relative to control; format: functional; conditions: RPMI-8226, 48 h, read-out: GI
[2] = biological target: DNA-dependent protein kinase catalytic subunit (Homo sapiens, UniProt P78527); test: Inhibition of human DNA-PK using EPPLSQEAFADLWKK as substrate by HTRF assay
[3] = Cytotoxicity against human PC3 cells assessed as cell growth inhibition at 10 uM after 48 hrs by SRB assay relative to control; format: functional; conditions: PC-3, 48 h, read-out: GI
KM12 = test: Cytotoxicity against human KM12 cells assessed as cell growth inhibition at 10 uM after 48 hrs by SRB assay relative to control; format: functional; conditions: KM12, 48 h, read-out: GI
[4] = Cytotoxicity against human HL-60(TB) cells assessed as cell growth inhibition at 10 uM after 48 hrs by SRB assay relative to control; format: functional; conditions: HL-60, 48 h, read-out: GI
[5] = Cytotoxicity against human HOP62 cells assessed as cell growth inhibition at 10 uM after 48 hrs by SRB assay relative to control; format: functional; conditions: HOP-62, 48 h, read-out: GI
MDA-MB-468 = test: Cytotoxicity against human MDA-MB-468 cells assessed as cell growth inhibition at 10 uM after 48 hrs by SRB assay relative to control; format: functional; conditions: MDA-MB-468, 48 h, read-out: GI
[6] = Cytotoxicity against human MOLT4 cells assessed as cell growth inhibition at 10 uM after 48 hrs by SRB assay relative to control; format: functional; conditions: MOLT-4, 48 h, read-out: GI
T47D = test: Cytotoxicity against human T47D cells assessed as cell growth inhibition at 10 uM after 48 hrs by SRB assay relative to control; format: functional; conditions: read-out: GI
NCI-H226 = test: Cytotoxicity against human NCI-H226 cells assessed as cell growth inhibition at 10 uM after 48 hrs by SRB assay relative to control; format: functional; conditions: NCI-H226, 48 h, read-out: GI
SK-MEL-28 = test: Cytotoxicity against human SK-MEL-28 cells assessed as cell growth inhibition at 10 uM after 48 hrs by SRB assay relative to control; format: functional; conditions: SK-MEL-28, 48 h, read-out: GI
NCI-H522 = test: Cytotoxicity against human NCI-H522 cells assessed as cell growth inhibition at 10 uM after 48 hrs by SRB assay relative to control; format: functional; conditions: NCI-H522, 48 h, read-out: GI
CCRF-CEM = test: Cytotoxicity against human CCRF-CEM cells assessed as cell growth inhibition at 10 uM after 48 hrs by SRB assay relative to control; format: functional; conditions: read-out: GI
[7] = Cytotoxicity against human Hs 578T cells assessed as cell growth inhibition at 10 uM after 48 hrs by SRB assay relative to control; format: functional; conditions: read-out: GI
[8] = Cytotoxicity against human DU145 cells assessed as cell growth inhibition at 10 uM after 48 hrs by SRB assay relative to control; format: functional; conditions: DU-145, 48 h, read-out: GI
SN12C = test: Cytotoxicity against human SN12C cells assessed as cell growth inhibition at 10 uM after 48 hrs by SRB assay relative to control; format: functional; conditions: read-out: GI
[9] = Cytotoxicity against human HCC2998 cells assessed as cell growth inhibition at 10 uM after 48 hrs by SRB assay relative to control; format: functional; conditions: HCC 2998, 48 h, read-out: GI
[10] = Cytotoxicity against human IGROV1 cells assessed as cell growth inhibition at 10 uM after 48 hrs by SRB assay relative to control; format: functional; conditions: IGROV-1, 48 h, read-out: GI
A549 = test: Cytotoxicity against human A549 cells assessed as cell growth inhibition at 10 uM after 48 hrs by SRB assay relative to control; format: functional; conditions: A549, 48 h, read-out: GI
[11] = Cytotoxicity against human SKOV3 cells assessed as cell growth inhibition at 10 uM after 48 hrs by SRB assay relative to control; format: functional; conditions: SK-OV-3, 48 h, read-out: GI
[12] = Cytotoxicity against human OVCAR5 cells assessed as cell growth inhibition at 10 uM after 48 hrs by SRB assay relative to control; format: functional; conditions: OVCAR-5, 48 h, read-out: GI
SR = test: Cytotoxicity against human SR cells assessed as cell growth inhibition at 10 uM after 48 hrs by SRB assay relative to control; format: functional; conditions: read-out: GI
[13] = Cytotoxicity against human OVCAR4 cells assessed as cell growth inhibition at 10 uM after 48 hrs by SRB assay relative to control; format: functional; conditions: OVCAR-4, 48 h, read-out: GI
MDA-MB-435 = test: Cytotoxicity against human MDA-MB-435 cells assessed as cell growth inhibition at 10 uM after 48 hrs by SRB assay relative to control; format: functional; conditions: MDA-MB-435, 48 h, read-out: GI
ACHN = test: Cytotoxicity against human ACHN cells assessed as cell growth inhibition at 10 uM after 48 hrs by SRB assay relative to control; format: functional; conditions: read-out: GI
[14] = Cytotoxicity against human COLO205 cells assessed as cell growth inhibition at 10 uM after 48 hrs by SRB assay relative to control; format: functional; conditions: COLO 205, 48 h, read-out: GI
NCI-H322M = test: Cytotoxicity against human NCI-H322M cells assessed as cell growth inhibition at 10 uM after 48 hrs by SRB assay relative to control; format: functional; conditions: read-out: GI
[15] = Cytotoxicity against human BT549 cells assessed as cell growth inhibition at 10 uM after 48 hrs by SRB assay relative to control; format: functional; conditions: BT-549, 48 h, read-out: GI
[16] = Cytotoxicity against human OVCAR8 cells assessed as cell growth inhibition at 10 uM after 48 hrs by SRB assay relative to control; format: functional; conditions: OVCAR-8, 48 h, read-out: GI
786-0 = test: Cytotoxicity against human 786-0 cells assessed as cell growth inhibition at 10 uM after 48 hrs by SRB assay relative to control; format: functional; conditions: 786-0, 48 h, read-out: GI
MDA-MB-231 = test: Cytotoxicity against human MDA-MB-231 cells assessed as cell growth inhibition at 10 uM after 48 hrs by SRB assay relative to control; format: functional; conditions: MDA-MB-231, 48 h, read-out: GI
MCF7 = test: Cytotoxicity against human MCF7 cells assessed as cell growth inhibition at 10 uM after 48 hrs by SRB assay relative to control; format: functional; conditions: MCF7, 48 h, read-out: GI
U-251 = test: Cytotoxicity against human U251 cells assessed as cell growth inhibition at 10 uM after 48 hrs by SRB assay relative to control; format: functional; conditions: U-251, 48 h, read-out: GI
Malme-3M = test: Cytotoxicity against human MALME-3M cells assessed as cell growth inhibition at 10 uM after 48 hrs by SRB assay relative to control; format: functional; conditions: read-out: GI
K562 = test: Cytotoxicity against human K562 cells assessed as cell growth inhibition at 10 uM after 48 hrs by SRB assay relative to control; format: functional; conditions: K562, 48 h, read-out: GI
[17] = Cytotoxicity against human UACC62 cells assessed as cell growth inhibition at 10 uM after 48 hrs by SRB assay relative to control; format: functional; conditions: UACC-62, 48 h, read-out: GI

Sequence of DNA-dependent protein kinase catalytic subunit (P78527 whole entry): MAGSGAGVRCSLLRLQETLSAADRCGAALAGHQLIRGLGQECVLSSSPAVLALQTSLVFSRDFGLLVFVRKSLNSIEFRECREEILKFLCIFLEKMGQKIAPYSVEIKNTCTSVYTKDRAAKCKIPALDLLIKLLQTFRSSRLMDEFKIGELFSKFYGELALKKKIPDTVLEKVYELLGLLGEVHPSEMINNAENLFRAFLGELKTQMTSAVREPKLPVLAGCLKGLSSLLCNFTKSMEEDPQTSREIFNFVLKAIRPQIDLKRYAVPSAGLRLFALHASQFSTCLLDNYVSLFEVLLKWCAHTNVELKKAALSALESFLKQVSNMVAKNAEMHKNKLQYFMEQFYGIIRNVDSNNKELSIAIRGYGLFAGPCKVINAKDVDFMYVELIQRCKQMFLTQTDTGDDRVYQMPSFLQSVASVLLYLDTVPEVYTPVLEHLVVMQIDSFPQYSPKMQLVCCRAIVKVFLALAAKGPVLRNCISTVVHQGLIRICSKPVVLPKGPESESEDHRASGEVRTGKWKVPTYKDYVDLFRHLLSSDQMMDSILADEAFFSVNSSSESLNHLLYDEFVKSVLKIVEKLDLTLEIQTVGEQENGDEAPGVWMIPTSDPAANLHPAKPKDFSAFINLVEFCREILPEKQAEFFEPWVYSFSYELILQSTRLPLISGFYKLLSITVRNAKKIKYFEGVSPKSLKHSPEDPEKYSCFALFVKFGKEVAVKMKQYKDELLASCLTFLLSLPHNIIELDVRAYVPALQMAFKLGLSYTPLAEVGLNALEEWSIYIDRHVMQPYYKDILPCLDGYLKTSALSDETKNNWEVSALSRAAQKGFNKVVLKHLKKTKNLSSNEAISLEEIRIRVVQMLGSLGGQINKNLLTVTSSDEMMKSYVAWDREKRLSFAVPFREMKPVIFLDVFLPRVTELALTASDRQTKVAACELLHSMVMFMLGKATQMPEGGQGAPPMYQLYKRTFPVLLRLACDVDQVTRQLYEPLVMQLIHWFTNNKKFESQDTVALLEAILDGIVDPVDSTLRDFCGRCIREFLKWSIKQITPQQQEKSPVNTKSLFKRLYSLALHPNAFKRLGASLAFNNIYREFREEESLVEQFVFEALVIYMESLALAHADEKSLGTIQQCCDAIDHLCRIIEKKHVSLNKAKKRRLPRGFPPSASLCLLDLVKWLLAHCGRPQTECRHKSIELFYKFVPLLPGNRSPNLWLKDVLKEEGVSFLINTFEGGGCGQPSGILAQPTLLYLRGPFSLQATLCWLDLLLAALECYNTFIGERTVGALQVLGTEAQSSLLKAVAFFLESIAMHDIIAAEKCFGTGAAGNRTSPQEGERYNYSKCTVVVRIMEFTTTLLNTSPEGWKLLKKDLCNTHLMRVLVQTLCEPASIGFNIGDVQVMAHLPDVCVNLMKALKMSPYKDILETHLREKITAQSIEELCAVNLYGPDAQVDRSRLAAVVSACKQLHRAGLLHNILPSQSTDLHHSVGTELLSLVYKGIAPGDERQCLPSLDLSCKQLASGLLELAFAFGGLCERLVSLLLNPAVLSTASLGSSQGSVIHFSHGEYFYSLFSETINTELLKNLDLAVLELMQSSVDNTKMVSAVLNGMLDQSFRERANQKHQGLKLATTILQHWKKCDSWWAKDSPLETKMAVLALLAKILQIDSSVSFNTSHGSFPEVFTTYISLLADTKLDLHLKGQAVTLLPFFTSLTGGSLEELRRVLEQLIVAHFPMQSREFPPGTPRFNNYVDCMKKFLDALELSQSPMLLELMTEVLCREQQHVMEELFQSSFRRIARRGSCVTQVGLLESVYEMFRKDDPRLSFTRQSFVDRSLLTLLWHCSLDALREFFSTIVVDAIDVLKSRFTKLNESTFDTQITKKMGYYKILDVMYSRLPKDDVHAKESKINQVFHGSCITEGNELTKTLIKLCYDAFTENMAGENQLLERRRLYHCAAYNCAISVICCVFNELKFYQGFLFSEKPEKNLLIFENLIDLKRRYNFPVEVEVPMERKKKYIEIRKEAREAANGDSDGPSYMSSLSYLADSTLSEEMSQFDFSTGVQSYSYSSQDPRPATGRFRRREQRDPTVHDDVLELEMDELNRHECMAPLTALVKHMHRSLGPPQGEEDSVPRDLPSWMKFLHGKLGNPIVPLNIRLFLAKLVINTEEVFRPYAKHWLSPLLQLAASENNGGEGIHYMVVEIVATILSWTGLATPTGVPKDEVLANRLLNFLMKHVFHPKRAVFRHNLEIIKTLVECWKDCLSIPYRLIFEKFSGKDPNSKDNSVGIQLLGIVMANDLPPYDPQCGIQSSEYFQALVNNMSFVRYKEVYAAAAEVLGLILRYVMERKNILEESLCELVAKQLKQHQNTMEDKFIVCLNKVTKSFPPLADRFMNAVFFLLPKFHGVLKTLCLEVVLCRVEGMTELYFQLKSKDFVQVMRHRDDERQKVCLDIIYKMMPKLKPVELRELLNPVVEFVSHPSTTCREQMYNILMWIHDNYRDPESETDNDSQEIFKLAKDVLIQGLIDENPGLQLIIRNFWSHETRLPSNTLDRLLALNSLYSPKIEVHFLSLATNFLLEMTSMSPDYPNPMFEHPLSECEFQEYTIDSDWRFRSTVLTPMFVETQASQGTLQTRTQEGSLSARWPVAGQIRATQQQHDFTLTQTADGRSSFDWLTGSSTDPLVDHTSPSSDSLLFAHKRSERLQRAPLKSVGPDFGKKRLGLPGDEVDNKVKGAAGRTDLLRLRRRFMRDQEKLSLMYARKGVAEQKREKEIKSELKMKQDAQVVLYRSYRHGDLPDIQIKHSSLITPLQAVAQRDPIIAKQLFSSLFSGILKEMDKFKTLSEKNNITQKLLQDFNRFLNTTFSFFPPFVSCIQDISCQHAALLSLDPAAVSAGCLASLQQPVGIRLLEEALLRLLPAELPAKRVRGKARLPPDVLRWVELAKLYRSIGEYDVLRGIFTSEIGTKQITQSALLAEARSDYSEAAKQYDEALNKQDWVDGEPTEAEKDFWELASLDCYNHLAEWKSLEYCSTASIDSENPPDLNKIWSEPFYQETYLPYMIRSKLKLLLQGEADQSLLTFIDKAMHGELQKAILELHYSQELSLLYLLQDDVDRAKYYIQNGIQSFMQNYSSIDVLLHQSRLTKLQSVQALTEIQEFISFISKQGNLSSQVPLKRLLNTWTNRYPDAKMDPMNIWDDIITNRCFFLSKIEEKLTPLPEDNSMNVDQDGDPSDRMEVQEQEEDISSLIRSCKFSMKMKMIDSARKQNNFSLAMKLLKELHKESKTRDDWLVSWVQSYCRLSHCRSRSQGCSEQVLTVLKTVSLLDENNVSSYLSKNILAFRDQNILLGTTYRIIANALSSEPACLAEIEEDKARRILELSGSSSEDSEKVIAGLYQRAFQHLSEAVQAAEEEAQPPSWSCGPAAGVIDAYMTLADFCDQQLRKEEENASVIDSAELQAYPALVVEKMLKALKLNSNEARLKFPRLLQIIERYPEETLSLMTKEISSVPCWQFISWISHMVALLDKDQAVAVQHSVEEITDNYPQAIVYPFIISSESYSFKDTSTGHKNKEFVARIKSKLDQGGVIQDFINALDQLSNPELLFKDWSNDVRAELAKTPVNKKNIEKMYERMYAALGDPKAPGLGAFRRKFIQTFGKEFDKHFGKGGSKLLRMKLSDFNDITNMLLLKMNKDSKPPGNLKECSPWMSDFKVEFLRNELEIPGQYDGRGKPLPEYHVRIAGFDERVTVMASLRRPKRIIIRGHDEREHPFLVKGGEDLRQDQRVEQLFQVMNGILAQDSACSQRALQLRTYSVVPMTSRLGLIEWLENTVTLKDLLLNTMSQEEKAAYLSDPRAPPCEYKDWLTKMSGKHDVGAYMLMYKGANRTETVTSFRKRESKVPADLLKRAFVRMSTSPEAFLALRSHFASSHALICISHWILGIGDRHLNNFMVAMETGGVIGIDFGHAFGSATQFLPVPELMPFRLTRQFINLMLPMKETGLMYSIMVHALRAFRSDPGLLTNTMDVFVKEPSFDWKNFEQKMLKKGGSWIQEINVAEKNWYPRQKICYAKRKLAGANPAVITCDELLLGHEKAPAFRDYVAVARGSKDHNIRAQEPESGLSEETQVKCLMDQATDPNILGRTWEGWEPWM

Structure (SMILES) | inhibition of growth at 10 µM [1] | inhibition of growth at 10 µM [3] | inhibition of growth at 10 µM (KM12) | inhibition of growth at 10 µM [4] | inhibition of growth at 10 µM [5] | inhibition of growth at 10 µM (MDA-MB-468) | inhibition of growth at 10 µM [6] | inhibition of growth at 10 µM (T47D) | inhibition of growth at 10 µM (NCI-H226) | inhibition of growth at 10 µM (SK-MEL-28) | inhibition of growth at 10 µM (NCI-H522) | inhibition of growth at 10 µM (CCRF-CEM) | inhibition of growth at 10 µM [7] | inhibition of growth at 10 µM [8] | inhibition of growth at 10 µM (SN12C) | inhibition of growth at 10 µM [9] | inhibition of growth at 10 µM [10] | inhibition of growth at 10 µM (A549) | inhibition of growth at 10 µM [11] | inhibition of growth at 10 µM [12] | other results
O=c1nc(N2CCOCC2)oc2c(-c3cccc4ccccc34)cccc12 | 3.86% | 40.3% | 12.7% | 6.4% | 19.2% | 23.5% | 6.92% | 20.3% | 33.4% | 5.64% | 18% | 8.52% | 16.2% | 2.34% | 17.7% | -9.26% | 24.6% | 14.4% | 10% | 10.8% | IC50 [2]: 20.3 µM; inhibition of growth at 10 µM (SR): 27.1%; inhibition of growth at 10 µM [13]: 2.95%; inhibition of growth at 10 µM (MDA-MB-435): -1.44%; inhibition of growth at 10 µM (ACHN): 18.4%; inhibition of growth at 10 µM [14]: -3.19%; inhibition of growth at 10 µM (NCI-H322M): 9.24%; inhibition of growth at 10 µM [15]: 14.7%; inhibition of growth at 10 µM [16]: 14.8%; inhibition of growth at 10 µM (786-0): 25.6%; inhibition of growth at 10 µM (MDA-MB-231): 6.52%; inhibition of growth at 10 µM (MCF7): 10.2%; inhibition of growth at 10 µM (U-251): 14.2%; inhibition of growth at 10 µM (Malme-3M): 24.8%; inhibition of growth at 10 µM (K562): 9.87%; inhibition of growth at 10 µM [17]: 45.6%
NC(=O)c1ccc(-c2cccc3c(=O)nc(N4CCOCC4)oc23)cc1 | -4.18% | 10.1% | 2.45% | 2.5% | 4.92% | -5.19% | -2.82% | 12.2% | 17.4% | -3.25% | 10.4% | 1.37% | 2.8% | -3.19% | -3.74% | -1.23% | -3.1% | -0.08% | -3.41% | 3.19% | IC50 [2]: 8.81 µM; inhibition of growth at 10 µM (SR): 8.01%; inhibition of growth at 10 µM [13]: 9.54%; inhibition of growth at 10 µM (MDA-MB-435): -6.9%; inhibition of growth at 10 µM (ACHN): -0.43%; inhibition of growth at 10 µM [14]: -3.93%; inhibition of growth at 10 µM (NCI-H322M): 7.01%; inhibition of growth at 10 µM [15]: 1.94%; inhibition of growth at 10 µM [16]: -1.1%; inhibition of growth at 10 µM (786-0): -0.31%; inhibition of growth at 10 µM (MDA-MB-231): 8.08%; inhibition of growth at 10 µM (MCF7): 9.68%; inhibition of growth at 10 µM (U-251): 2.31%; inhibition of growth at 10 µM (Malme-3M): 14.6%; inhibition of growth at 10 µM (K562): -10.4%; inhibition of growth at 10 µM [17]: 7.72%
COc1ccc(-c2cccc3c(=O)nc(N4CCOCC4)oc23)cc1 | -0.31% | 14.9% | 2.91% | 7.35% | 5.81% | 6.21% | 1.48% | 38.5% | 15.1% | 2.38% | 12.8% | 2.57% | 11.1% | 1.58% | 8.75% | -5.73% | 0.87% | 5.88% | -6.51% | 4.76% | IC50 [2]: 9.94 µM; inhibition of growth at 10 µM (SR): 26.1%; inhibition of growth at 10 µM [13]: 2.85%; inhibition of growth at 10 µM (MDA-MB-435): 1.03%; inhibition of growth at 10 µM (ACHN): 6.19%; inhibition of growth at 10 µM [14]: -2.6%; inhibition of growth at 10 µM (NCI-H322M): 3.11%; inhibition of growth at 10 µM [15]: 4.99%; inhibition of growth at 10 µM [16]: 4.78%; inhibition of growth at 10 µM (786-0): 9.72%; inhibition of growth at 10 µM (MDA-MB-231): 3.13%; inhibition of growth at 10 µM (MCF7): 17.4%; inhibition of growth at 10 µM (U-251): 0.83%; inhibition of growth at 10 µM (Malme-3M): -4.08%; inhibition of growth at 10 µM (K562): 7.02%; inhibition of growth at 10 µM [17]: 19.3%
O=c1nc(N2CCOCC2)oc2ccc(-c3cccc4c3sc3ccccc34)cc12 | 3.98% | 39.9% | 0.12% | -10.4% | 4.6% | 20% | -8.92% | 16.6% | 11.7% | 4.76% | -2.38% | 4.4% | 1.62% | -3.21% | 6.33% | -17.8% | -5.28% | 5.3% | -10.4% | 0.51% | inhibition of growth at 10 µM (SR): 19.5%; inhibition of growth at 10 µM [13]: 2.78%; inhibition of growth at 10 µM (MDA-MB-435): 1.87%; inhibition of growth at 10 µM (ACHN): -1.95%; inhibition of growth at 10 µM [14]: -2.96%; inhibition of growth at 10 µM (NCI-H322M): -0.24%; inhibition of growth at 10 µM [15]: 4.62%; inhibition of growth at 10 µM [16]: 0.97%; inhibition of growth at 10 µM (786-0): 5.42%; inhibition of growth at 10 µM (MDA-MB-231): 12.8%; inhibition of growth at 10 µM (MCF7): 21%; inhibition of growth at 10 µM (U-251): 6.66%; inhibition of growth at 10 µM (Malme-3M): 4.63%; inhibition of growth at 10 µM (K562): 10.7%; inhibition of growth at 10 µM [17]: 12.6%

— ChEMBL document CHEMBL3763148, “Synthesis, structure elucidation, DNA-PK and PI3K and anti-cancer activity of 8- and 6-aryl-substituted-1-3-benzoxazines” (Eur J Med Chem, 2016)
